Data as given in US10220022B2, “Compositions and methods employing Wolbachia FtsZ as a target for Albendazole sulfone” (The Regents of the University of California, priority 2011, dated 2019).

Assays:
[1] = test system: Wolbachia-infected JW18 cells; assay: High-throughput screen for compounds reducing Wolbachia infection of JW18 cells; format: cell-based, Drosophila; conditions: 100 uM per well, 5-day incubation at 25 C, 3 replicates
Description: Cells were plated in 384-well, clear bottom plates (Griener Bio-one) pre-coated with 0.5 mg/mL Concanavalin A. JW18 cells were added to 22 columns, and JW18TET cells were added to the remaining 2 columns at a dilution of 6500 cells per well. After the cells adhered to the plates, compounds were transferred into 20 columns of JW18 cells in the center of the plate using a Janus MDT pin tool. The final concentration of compound was 100 uM per well. All treatments were distributed into 3 plate replicates.
After a 5-day incubation with the compounds at 25 C, the cells were prepared for imaging. Cells were fixed for 20 minutes in 4% formaldehyde and rinsed with PBS using an automated BioTek liquid handler. All staining solutions were administered using a Multidrop robot, with extensive rinsing between treatments. The primary antibody, mouse anti histone (MAB052, Millipore), was used at 1:1250 in PBS/0.1% Triton. Secondary antibody goat anti-mouse Alexa 594 (Invitrogen) was used at 1:1250. DAPI was used as a saturated solution, diluted to a final concentration of 1:40. After staining, PBS+Azide was added to all wells of the plates.
Stained treatment plates were imaged using the MetaExpress Micro system (Molecular Devices, Sunnyvale Calif.). 10 images were acquired per well at 40× magnification. These images were next analyzed using customized journaling software provided by Molecular Devices. The journal first masks any areas where clumps of cells are detected, based upon intensity of the Jupiter-GFP. The boundaries of the remaining cells and their nuclei are recognized based upon the Jupiter-GFP and anti-histone stains. A mask is applied to the nuclei, to obscure the hi stone and DAPI signal from those areas. A threshold for DAPI fluorescence detection is set to detect as much Wolbachia as possible in JW18 control cells while minimizing detection of background DAPI signal in JW18TET control cells. Then this cytoplasmic DAPI level, read to indicate Wolbachia, is scored in the cytoplasm of individual cells to determine whether each cell is infected with Wolbachia. The cutoff value distinguishing “infected” from “uninfected” cells is 4000-5000 fluorescence units per cell.
A spreadsheet from the journal indicates the quantity of Wolbachia-infected cells versus total cells measured in each well. A Z′ factor is calculated for each plate based upon the average frequency of cell infection for JW18 and JW18TET control cells. […] An initial hit range is calculated to lie between the JW18 average infection frequency−3 standard deviations, and the average JW18TET infection frequency+3 standard deviations. To further refine identification of hits, we also calculated an average infection frequency for all JW18 cells on the plate (treated or not), as most treatment wells are expected to be indistinguishable from untreated controls. Wells are that lie within 3 standard deviations of the mean are exluded, and remaining wells are classified as hits within that replicate. Hit wells that are identified in at least 2 out of 3 replicates are considered to be finalized hits.
In this screen, 3081 compounds froth the National Cancer Institute were used. […] Cells were incubated for 5 days with each compound, then fixed, stained, and imaged using automated robotics (FIG. 2). Customized analysis software was used to compare the images from compound-treated wells to the control cells to assay for significant changes in the quantity of Wolbachia-infected cells. All treatment plates were run in triplicate.

Wolbachia = Wolbachia titer in Drosophila oogenesis after drug feeding; format: in vivo; conditions: 24-hour treatment, counts from single oocyte focal planes; DMSO control 225+/−18
Excerpt: (§1) Drug feeding conditions: Fly feeding we done as previously described.
(§2) Staining: Drosophila Ovary staining was done with PI, anti-tubuli. Drosophila Embryo staining was done with anti-FtsZ. Brugia microfilarial staining was done with PI, anti-tubulin, and anti-FtsZ.
As Albendazole is already a widely used, FDA-approved drug, we proceeded to test it and the primary metabolites Albendazole sulfoxide and Albendazole sulfone for anti-Wolbachia effects in Drosophila oogenesis. This system provides a high-precision method for assessing Wolbachia titer in a well-characterized developmental context.

[2] = test system: oocyte microtubule cytoskeleton; assay: Posterior Wolbachia localization in treated oocytes; format: in vivo; conditions: treated Drosophila oocytes; DMSO controls 95%
Excerpt: as §1, §2
(§3) To address whether Albendazole sulfone acts on Wolbachia by disrupting the oocyte microtubule cytoskeleton, a combination of approaches was used. It has previously been shown that Wolbachia concentrate at the oocyte posterior cortex in a microtubule-dependent manner. […] We also examined the cytoskeleton directly by immunolabeling the microtubules.

[3] = test system: oocyte microtubule cytoskeleton; assay: Immunolabeling of oocyte microtubules; format: in vivo, Drosophila; conditions: immunolabeling of the microtubules, stage 10A oocytes
Excerpt: as §2, §3

B. malayi microtubules = assay: Microtubule staining of treated Brugia malayi microfilariae; conditions: compound fed to Brugia malayi microfilariae
Excerpt: as §2
(§4) To investigate whether Albendazole sulfone disrupts Walbachia FtsZ, we fed this compound to Brugia malayi microfilariae, which carry Wolbachia as an essential endosymbiont. […] This is consistent with the predicted benzimidazole susceptibility of B. malayi beta tubulin (FIG. 5).
(§5) In view of the above the inventors posed the questions: By what mechanism does Albendazole sulfone act against Wolbachia FtsZ? And is FtsZ disruption a consequence of host microtubule disassembly, or due to a separate effect on FtsZ by Albendazole sulfone? […] To further test whether Wolbachia FtsZ relies on host microtubules, we also treated Brugia with the microtubule-disrupting drug Colchicine.

Wolbachia FtsZ = assay: FtsZ immunostaining in treated Brugia malayi microfilariae; conditions: compound fed to Brugia malayi microfilariae
Excerpt: as §2, §4, §5

beta-tubulin = conditions: relative to Albendazole sulfoxide; cited from earlier work
Streptococcus pyrogenes = conditions: prior screen; cited from earlier work
M. tuberculosis FtsZ = M. tuberculosis FtsZ (Mycobacterium tuberculosis, UniProt P9WN95); conditions: cited from earlier work
Sequence of M. tuberculosis FtsZ (P9WN95 whole entry): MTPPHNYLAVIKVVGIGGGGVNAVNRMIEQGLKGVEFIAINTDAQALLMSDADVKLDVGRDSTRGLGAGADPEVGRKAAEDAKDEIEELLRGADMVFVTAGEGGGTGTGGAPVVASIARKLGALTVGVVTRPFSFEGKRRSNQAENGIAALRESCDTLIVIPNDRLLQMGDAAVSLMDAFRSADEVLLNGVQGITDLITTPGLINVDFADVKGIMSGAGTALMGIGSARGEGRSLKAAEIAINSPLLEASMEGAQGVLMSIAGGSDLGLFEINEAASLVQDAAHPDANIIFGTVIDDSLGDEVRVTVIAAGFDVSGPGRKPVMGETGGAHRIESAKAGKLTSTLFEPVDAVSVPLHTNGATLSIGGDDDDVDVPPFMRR

Question: Which “reduction of Wolbachia-infection frequency (screen hit)” value (from here on “reduction”) [1] does the source give for CN1CCN(c2ccc([N+](=O)[O-])c3no[n+]([O-])c23)CC1 [NSC207895] here?
Answer: hits

Question: Which “reduction” value [1] does the source give for O=[N+]([O-])/C=C/c1cc2ccccc2[nH]1 [NSC150982] here?
Answer: anti-Wolbachia

Question: What does the source list for CCCS(=O)(=O)c1ccc2nc(NC(=O)OC)[nH]c2c1 [Albendazole sulfone]?
Answer: Wolbachia per oocyte (Wolbachia): 150+/−13 Wolbachia per oocyte; oocytes with posterior Wolbachia localization [2]: 93%; oocyte microtubule structure [3]: fibrillar microtubule arrays; effect on Brugia host microtubules (B. malayi microtubules): widespread disruption of B. malayi microtubules; effect on Wolbachia FtsZ (Wolbachia FtsZ): FtsZ was also disrupted in most; potency as disrupter of beta-tubulin (beta-tubulin): far less potent disrupter of beta-tubulin than Albendazole sulfoxide

Question: With COC1=C(C)C(=O)C2=C(C1=O)[C@H](COC(N)=O)[C@@]1(O)[C@@H]3[C@H](CN21)N3C (stereo partly drawn) [Mitomycin B] as the molecule, how does the “reduction” value [1] read?
Answer: hits

Question: With O=C(CSc1nc2ccccc2s1)c1sc2sc3ccccc3[n+]2c1O [NSC339601] as the molecule, how does the “reduction” value [1] read?
Answer: anti-Wolbachia

Question: What does the source list for CCN1/C(=C/C(C)=C/c2sc3ccccc3[n+]2CC)Sc2ccccc21.[I-] [NSC96932]?
Answer: reduction of Wolbachia-infection frequency (screen hit) [1]: hits; antibacterial activity (Streptococcus pyrogenes): exert antibacterial activity

Question: For CCC[S+]([O-])c1ccc2[nH]c(NC(=O)OC)nc2c1 (stereo not drawn) [Albendazole sulfoxide], which Wolbachia per oocyte (Wolbachia) is on record?
Answer: 255+/−27 Wolbachia per oocyte

Question: With C[C@H]1c2cccc(O)c2C(=O)C2=C(O)[C@]3(O)C(=O)C(C(N)=O)=C(O)[C@@H](N(C)C)[C@@H]3[C@@H](O)[C@@H]21 [Doxycycline] as the molecule, how does the Wolbachia per oocyte (Wolbachia) read?
Answer: 126+/−11 Wolbachia per oocyte

Question: Which “oocytes with posterior Wolbachia localization” value [2] does the source give for COc1cc2c(c(OC)c1OC)-c1ccc(OC)c(=O)cc1[C@@H](NC(C)=O)CC2 [Colchicine, reference compound] here?
Answer: 21%

Question: What about the oocyte microtubule structure [3] of the same molecule?
Answer: devoid of filamentous structure

Question: What about the “effect on Brugia host microtubules” value (B. malayi microtubules) of the same molecule?
Answer: severely disrupted host microtubules

Question: What about the “effect on Wolbachia FtsZ” value (Wolbachia FtsZ) of the same molecule?
Answer: FtsZ remained concentrated near Wolbachia DNA

Question: For CC[C@@]1(O)C[C@H](O[C@H]2C[C@H](N(C)C)[C@H](O[C@H]3C[C@@H]4O[C@H]5CC(=O)[C@H](C)O[C@H]5O[C@@H]4[C@H](C)O3)[C@H](C)O2)c2c(cc3c(c2O)C(=O)c2c(O)ccc(O)c2C3=O)[C@H]1C(=O)OC [Cinerubin B], which “reduction” value [1] is on record?
Answer: hits

Question: Which Wolbachia per oocyte (Wolbachia) does the source give for CCCSc1ccc2nc(NC(=O)OC)[nH]c2c1 [Albendazole] here?
Answer: 194+/−20 Wolbachia per oocyte

Question: And the “effect on M. tuberculosis FtsZ” value (M. tuberculosis FtsZ)?
Answer: unaffected
